Consider two molecules from publication PMC10137179, “Assessment of Covalently Binding Warhead Compounds in the Validation of the Cytomegalovirus Nuclear Egress Complex as an Antiviral Target” (Cells, 2023).

Series [1] deals with HFF-UL50, HFFs, MRC-5 and 293T cells. Description: Neutral Red cytotoxicity of Shield-1 on four cell types. Particulars: Shield-1 0.04–10 µM, 4 (293T) or 7 d post-treatment.
Description: Analysis of putative cytotoxicity of the synthetic ligand Shield-1 on different cell
types. Four different types of cells (recombinant complementing cells HFF-UL50, primary HFFs and
and MRC-5 cells, and immortalized 293T) were treated with various concentrations of Shield-1
(0.04–10 µM as shown on the right). At 4 (293T) or 7 d post-treatment, cell viability was assessed by
Neutral Red staining. Data are presented as mean values ± SD over three biological replicates.
Cytotoxic staurosporine (STP, 1 µM) served as a positive control, DMSO-treated cells as a negative
The target of another series is T1, SmBiT::UL50-HA (human cytomegalovirus (HCMV), UniProt P16791 1-397).
T1 construct: also called pUL50; HCMV core NEC groove protein; source: 293T cells, transiently transfected (PEI), in live cells
T1 sequence: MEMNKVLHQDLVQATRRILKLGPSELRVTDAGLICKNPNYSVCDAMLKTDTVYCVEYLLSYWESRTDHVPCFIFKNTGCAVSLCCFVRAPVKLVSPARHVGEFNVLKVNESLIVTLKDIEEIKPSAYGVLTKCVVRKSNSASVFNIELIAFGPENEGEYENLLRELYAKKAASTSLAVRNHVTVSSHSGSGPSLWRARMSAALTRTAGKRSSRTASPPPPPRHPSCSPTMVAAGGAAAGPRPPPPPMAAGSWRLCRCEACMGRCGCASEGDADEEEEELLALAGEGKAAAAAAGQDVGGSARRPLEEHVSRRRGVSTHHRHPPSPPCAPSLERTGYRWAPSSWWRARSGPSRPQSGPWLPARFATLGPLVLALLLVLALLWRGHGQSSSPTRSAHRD
Description: split reporter (BiFC, NanoBiT); NanoBiT in 293T cells cotransfected with LgBiT and SmBiT constructs; NanoGlo Live Cell Assay, luminescence at 37 °C; background of LgBiT without SmBiT subtracted; some samples with warhead compounds (LDC compounds, ibrutinib and others). Particulars: partners not purified.

As for `CC[C@H](C(=O)N1CCCC[C@H]1C(=O)O[C@H](CCc1ccc(OC)c(OC)c1)c1cccc(OCCN2CCOCC2)c1)c1cc(OC)c(OC)c(OC)c1` [Shield-1], the “cytotoxic potential (in words)” value in series [1] is “low cytotoxic potential”.

B1: LgBiT::UL53(1–87)-Flag (domain or fragment)
chain: MSSVSGVRTPRERRSALRSLLRKRRQRELASKVASTVNGATSANNHGEPPSPADARPRLTLHDLHDIFREHPELELKYLNMMKMAIT
notes: source: 293T cells, transiently transfected (PEI), in live cells
Turning to B1, the “NanoBiT signal strength relative to LgBiT::UL53-Flag + SmBiT::UL50-HA (100%)” value with SmBiT::UL50-HA is 288%.
